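Method: 48-hour compound exposure of cells in 96-well plates, five concentrations, linear interpolation of endpoints. The concentration for 50% growth inhibition is given as GI50.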 Calls of active or inactive are those of the source. No stated cut-off is given here; in the data, active = GI50 up to about 1.1 µM and inactive = higher.
Tests used:
Assay in all cases: DTP human tumour cell line panel, 48 h
OVCAR-3 = system: OVCAR-3
SK-MEL-2 = system: SK-MEL-2
K562 = system: K562
MDA-N = system: MDA-N
HCT-116 = system: HCT-116
ACHN = system: ACHN
DU-145 = system: DU-145
TK-10 = system: TK-10
OVCAR-5 = system: OVCAR-5
MDA-MB-435 = system: MDA-MB-435
IGROV-1 = system: IGROV-1
SNB-19 = system: SNB-19
SF-539 = system: SF-539
HCT-15 = system: HCT-15
PC-3 = system: PC-3
OVCAR-8 = system: OVCAR-8
RXF 393 = system: RXF 393
RPMI-8226 = system: RPMI-8226
Malme-3M = system: Malme-3M
HOP-92 = system: HOP-92

Row | Structure (SMILES) | GI50 (OVCAR-3) | GI50 (SK-MEL-2) | GI50 (K562) | GI50 (MDA-N) | GI50 (HCT-116) | GI50 (ACHN) | GI50 (DU-145) | GI50 (TK-10) | GI50 (OVCAR-5) | GI50 (MDA-MB-435) | GI50 (IGROV-1) | GI50 (SNB-19) | GI50 (SF-539) | GI50 (HCT-15) [µM] | GI50 (PC-3) | GI50 (OVCAR-8) | GI50 (RXF 393) | GI50 (RPMI-8226) | GI50 (Malme-3M) | GI50 (HOP-92)
1 | COc1ccccc1-n1cnc2c1=NC(C)(C)NC=2C(N)=O | > 100 µM (inactive) | > 100 µM (inactive) | > 100 µM (inactive) | > 100 µM (inactive) | > 100 µM (inactive) | > 100 µM (inactive) | > 100 µM (inactive) | > 100 µM (inactive) | > 100 µM (inactive) | > 100 µM (inactive) | > 100 µM (inactive) | > 100 µM (inactive) | > 100 µM (inactive) | > 100 | > 100 µM (inactive) | > 100 µM (inactive) | > 100 µM (inactive) | > 100 µM (inactive) | > 100 µM (inactive) | –
2 | COc1ccc(-c2oc3cc(OC)c(OC)c(OC)c3c(=O)c2OC)cc1OC [HEXAMETHOXYFLAVONE] | > 100 µM (inactive) | > 100 µM (inactive) | > 100 µM (inactive) | > 100 µM (inactive) | > 100 µM (inactive) | > 100 µM (inactive) | > 100 µM (inactive) | > 100 µM (inactive) | > 100 µM (inactive) | > 100 µM (inactive) | > 100 µM (inactive) | > 100 µM (inactive) | > 100 µM (inactive) | > 100 | > 100 µM (inactive) | > 100 µM (inactive) | > 100 µM (inactive) | – | > 100 µM (inactive) | 16.4 µM (inactive)
3 | CN(CCCNC(=O)c1cn(C)c2c1ccc1cc(Cl)c(Cl)cc12)CCCNC(=O)c1cn(C)c2c1ccc1cc(Cl)c(Cl)cc12 | 18.2 µM (inactive) | 16.7 µM (inactive) | 5.41 µM (inactive) | 15.9 µM (inactive) | 12.2 µM (inactive) | 13.1 µM (inactive) | 15.3 µM (inactive) | 17.5 µM (inactive) | 16.4 µM (inactive) | 6.17 µM (inactive) | 7.62 µM (inactive) | 7 µM (inactive) | 15.7 µM (inactive) | 11.9 | 13.3 µM (inactive) | 14.8 µM (inactive) | 4.42 µM (inactive) | – | 17.1 µM (inactive) | 11.6 µM (inactive)
4 | CC(=O)c1c(C)[n+]([O-])c2cc(Cl)c(Cl)cc2[n+]1[O-] | 19.9 µM (inactive) | 27.6 µM (inactive) | 19.4 µM (inactive) | 22.6 µM (inactive) | 15.6 µM (inactive) | 17.8 µM (inactive) | 23.1 µM (inactive) | 16.9 µM (inactive) | 38.3 µM (inactive) | 21.3 µM (inactive) | 4.98 µM (inactive) | 30.8 µM (inactive) | 24.7 µM (inactive) | 12.2 | 17.7 µM (inactive) | 14.2 µM (inactive) | > 100 µM (inactive) | 5.5 µM (inactive) | 6.58 µM (inactive) | –
5 | CC(=O)Oc1ccc2c(c1OC(C)=O)CCC1C2=CC[C@]2(C)C(=O)CCC12 (stereo partly drawn) | 2.44 µM (inactive) | 15.1 µM (inactive) | 14 µM (inactive) | 14.2 µM (inactive) | 4.92 µM (inactive) | 11.8 µM (inactive) | 15.7 µM (inactive) | 13.9 µM (inactive) | 15.1 µM (inactive) | 4.45 µM (inactive) | 4.73 µM (inactive) | 12.5 µM (inactive) | 14.2 µM (inactive) | 10.6 | 3.24 µM (inactive) | 14.3 µM (inactive) | – | 1 µM (active) | 13.8 µM (inactive) | 5.15 µM (inactive)
6 | COc1cc2c(cc1OC)C1=Cc3cc(OC)c(OC)cc3C(C)N1C=C2 (stereo not drawn) | 32.1 µM (inactive) | – | 25.9 µM (inactive) | 51.5 µM (inactive) | 50.2 µM (inactive) | > 100 µM (inactive) | > 100 µM (inactive) | 83.4 µM (inactive) | > 100 µM (inactive) | 41.8 µM (inactive) | > 100 µM (inactive) | 59.4 µM (inactive) | > 100 µM (inactive) | 69.7 | 12.3 µM (inactive) | 52 µM (inactive) | 57.4 µM (inactive) | 40 µM (inactive) | > 100 µM (inactive) | > 100 µM (inactive)
7 | Clc1ccc(CCN(CCc2ccc(Cl)c(Cl)c2)CCN2CCCC2)cc1Cl | 1.73 µM (inactive) | 1.67 µM (inactive) | 2.25 µM (inactive) | 1.87 µM (inactive) | 1.69 µM (inactive) | 1.74 µM (inactive) | 2.01 µM (inactive) | 1.78 µM (inactive) | 1.6 µM (inactive) | 1.44 µM (inactive) | 1.58 µM (inactive) | 1.82 µM (inactive) | 1.8 µM (inactive) | 1.79 | 1.57 µM (inactive) | 1.68 µM (inactive) | 1.72 µM (inactive) | 2.16 µM (inactive) | 1.78 µM (inactive) | –

Source: ChEMBL document CHEMBL1201862, “PubChem BioAssay data set” (2004)
